From patent US6509348B1, “Combination of an ADP-receptor blocking antiplatelet drug and a thromboxane A2 receptor antagonist and a method for inhibiting thrombus formation employing such combination” (Bristol-Myers Squibb Company, priority 1998, dated 2003)
Entries after “also recorded” stand apart in the source; their conditions may differ. Where two headings read alike, the source gives them in different places.

What was measured:
[1] = tested on: vessel injury-induced venous thrombosis; details: cited from earlier work; for activity in vessel injury-induced venous thrombosis model: aspirin, previous experiments
[2] = tested on: stasis-induced vena cava thrombosis; details: cited from earlier work
[3] = tested on: vessel injury-induced venous thrombosis; assay: FeCl2 vessel injury-induced vena cava thrombosis in rats; type: in vivo, rat
Protocol: Thrombosis Procedure. Male Sprague Dawley rats (350-450 g) were anesthetized with sodium pentobarbital (50 mg/kg i.p.). A jugular vein was cannulated for drug infusion or anesthetic supplementation, and the trachea was intubated to ensure airway patency. The vena cava was isolated by a midline abdominal incision and cleared of connective tissue. A fiberoptic probe (model P-433-10, 0.8 mm tip diameter) was placed on the dorsal surface of the vena cava distal to the renal veins and attached to a laser doppler blood perfusion monitor (model BPM 430-2, Vasamedics, St. Paul, Minn.). When baseline flow had stabilized, a 2 mm×5 mm strip of filter paper was saturated in 15% FeCl2 and placed on the vena cava downstream from the flow probe for 1 min. The vena cava was dissected free 60 min after filter paper application and opened lengthwise. The thrombus was removed to determine wet and dry thrombus weights on a Sartorius R-160P balance (Brinkmann Instruments Inc., Westbury, N.Y.). Blood flow was monitored on an R-611 physiological recorder (Sensor Medics, Anaheim, Calif.). Total blood flow was calculated by planimetry and normalized as percent of baseline flow (0 min=100%) over 60 min.
(§1) Drug treatments. There were 3 separate studies. In the first study rats were dosed once daily for 3 days with an oral gavage of either saline (n=6) or clopidogrel 3 (n=5), 10 (n=5), 20 (n=4) mg/kg). One hour after the last dose, rats were anethetized for the thrombosis protocol or blood was obtained for ex vivo testing of platelet function and whole blood coagulation. In the second study a continuous i.v. infusion of either saline or ifetroban (150 μg/kg/min) was administered starting 15 min before FeCl2-induced injury of the vena cava. In the third study, rats were treated with saline or clopidogrel (2 mg/kg per day for 3 days) and administered either saline or ifetroban (150 μg/kg/min) starting 15 min before FeCl2 application.

[4] = tested on: ADP-induced platelet aggregation; assay: animal or person
Protocol: (§2) Ex Vivo Platelet Function and Coagulation Testing. Male Sprague Dawley rats (350-450 g) were anesthetized with sodium pentobarbital (50 mg/kg i.p.) The vena cava was isolated by a midline abdominal incision and 5 to 8 ml of blood was withdrawn into a 1/10th volume of 3.8% Na citrate. A portion of each blood sample was centrifuged for 3 sec in a Microcentrifuge E (Beckman, Palo Alto, Calif., USA) to prepare platelet rich plasma (PRP) and for 3 min to prepare platelet poor plasma (PPP). The PRP was adjusted to a count of ˜450×10^3 platelets per […] by adding PPP.
Platelet aggregation responses of PRP to ADP (1,3 and 10 μM; Chrono-Log Corp., Havertown, Pa., USA) were determined using the photometric technique described for a model 540 aggregometer (Chrono-Log Corp.).
as §1

whole blood coagulation = details: clopidogrel orally once daily for 3 days
Protocol: as §2, §1

[5] = tested on: stasis-induced vena cava thrombosis; assay: Stasis-induced (uncomplicated) vena cava thrombosis; type: in vivo, rat
[6] = tested on: carotid artery thrombosis; details: clopidogrel 10 mg/kg
[7] = target: T1, rat platelet thromboxane A2 receptors (Rattus norvegicus, UniProt P34978); details: dose used (150 μg/kg/min); Schumacher et al. 1993; cited from earlier work
T1 construct: rat platelet thromboxane A2 receptors; host or cells: rat platelets (endogenous)
T1 sequence (P34978 1-341): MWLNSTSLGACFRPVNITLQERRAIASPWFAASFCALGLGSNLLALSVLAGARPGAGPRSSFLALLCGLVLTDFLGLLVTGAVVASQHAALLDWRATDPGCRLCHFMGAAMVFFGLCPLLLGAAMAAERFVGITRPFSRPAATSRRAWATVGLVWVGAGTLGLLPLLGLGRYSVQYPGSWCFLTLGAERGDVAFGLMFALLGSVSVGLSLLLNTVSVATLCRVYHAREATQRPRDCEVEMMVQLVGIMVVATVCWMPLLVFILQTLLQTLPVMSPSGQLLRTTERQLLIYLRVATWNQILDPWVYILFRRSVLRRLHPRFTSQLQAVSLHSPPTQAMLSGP

CC(=O)Oc1ccccc1C(=O)O [aspirin]
activity in vessel injury-induced venous thrombosis model [1]: failure; also recorded: failed to inhibit thrombosis
activity in vessel injury-induced venous thrombosis model ([1]; listed as Aspirin): inactive
activity in uncomplicated venous thrombosis model ([2]; aspirin): inactive

COC(=O)[C@H](c1ccccc1Cl)N1CCc2sccc2C1 [clopidogrel, methyl (4)-(S)-α-(o-chlorophenyl)-6,7-dihydrothieno[3,2-c]pyridine-5-acetate]
effect on thrombus formation ([3]; clopidogrel 2 mg/kg per day for 3 days): not sufficient to inhibit thrombus formation; also recorded: no effect
decrease in thrombus weight ([3]; clopidogrel 3 mg/kg orally once daily for 3 days): 46%
antithrombotic activity ([3]; clopidogrel 10 mg/kg): good activity
decrease in thrombus weight ([3]; clopidogrel 10 mg/kg orally once daily for 3 days): 72%
decrease in thrombus weight ([3]; clopidogrel 20 mg/kg orally once daily for 3 days): 84%
inhibition at 20 mg/kg ([4]; Rattus norvegicus, Platelet, 72 h, read-out: inhibition of ADP-induced aggregation): 86%
inhibition at 10 mg/kg ([4]; Rattus norvegicus, Platelet, 72 h, read-out: inhibition of ex vivo platelet aggregation): 50%
platelet shape change response to ADP ([4]; clopidogrel 20 mg/kg daily for 3 days): unaffected
ex vivo whole blood coagulation tests (whole blood coagulation): unaffected
antithrombotic activity ([5]; clopidogrel 10 mg/kg): good activity
antithrombotic efficacy compared across the thrombosis models ([5]; dose-dependent comparison of three rat models): least effective
antithrombotic activity [6]: good activity

CCCCCNC(=O)c1coc(C2C3CCC(O3)C2Cc2ccccc2CCC(=O)O)n1 (stereo not drawn) [ifetroban, [1S-(1α,2α,3α,4α)]-2-[[3-[4-[(pentylamino)carbonyl]-2-oxazolyl]-7-oxabicyclo[2.2.1]hept-2-yl]methyl]benzenepropanoic acid]
effect on thrombus formation ([3]; ifetroban alone, 150 μg/kg/min i.v. infusion from 15 min before FeCl2): inactive; also recorded: no significant effect; also recorded: failure; also recorded: not effective
effect on thrombus formation ([3]; ifetroban alone, 150 μg/kg/min i.v. infusion from 15 min before FeCl2, listed as Ifetroban): failed to inhibit thrombosis
efficacy in uncomplicated venous thrombosis model ([5]; ifetroban alone): effective; also recorded: intermediate efficacy
block of rat platelet thromboxane A2 receptors [7]: ≥ 99%

CC(=O)CC(c1ccccc1)c1c(O)c2ccccc2oc1=O (stereo not drawn) [warfarin]
INR ([1]; at higher dose needed for comparable inhibition of vessel injury-induced venous thrombosis): 9.5
PT ratio (INR) ([2]; at dose giving ≧75% inhibition of stasis-induced thrombosis): 2.2
